According to patent US20250136606A1, “MODULATORS OF TRPML, THEIR COMPOSITIONS AND METHODS OF USE” (Caraway Therapeutics, Inc., priority 2021, published 2025):
Read-outs that look alike come from different tables or passages of the source.

What was measured:
Assay type in all cases: cell-based
[1] = target: TRPML1 (Homo sapiens, UniProt Q9GZU1); assay: Fluorescent TRPML1 assay (Fluo4-AM calcium fluorescence in doxycycline-induced HEK-293 Trex cells)
In short: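 hTRPML1 (mutated for cell-surface expression) in HEK-293 Trex, dox 0.5 ug/mL o/n; Fluo4-AM 1 uM ~60 min, then ~60 min de-esterification, dark; modified Ringer's + 10 mM Ca. Cmpds 20 uM–6 nM final, half-log, n=3. Ex480/Em540; % activity vs ctrls; EC50 by nonlinear regression.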

[2] = target: T1, TRPML2 (Homo sapiens, UniProt Q8IZK6); assay: Fluorescent TRPML2 assay (performed as for TRPML1, substituting the TRPML2 subtype)
T1 construct: expressed in transfected cells
T1 sequence (Q8IZK6 1-566): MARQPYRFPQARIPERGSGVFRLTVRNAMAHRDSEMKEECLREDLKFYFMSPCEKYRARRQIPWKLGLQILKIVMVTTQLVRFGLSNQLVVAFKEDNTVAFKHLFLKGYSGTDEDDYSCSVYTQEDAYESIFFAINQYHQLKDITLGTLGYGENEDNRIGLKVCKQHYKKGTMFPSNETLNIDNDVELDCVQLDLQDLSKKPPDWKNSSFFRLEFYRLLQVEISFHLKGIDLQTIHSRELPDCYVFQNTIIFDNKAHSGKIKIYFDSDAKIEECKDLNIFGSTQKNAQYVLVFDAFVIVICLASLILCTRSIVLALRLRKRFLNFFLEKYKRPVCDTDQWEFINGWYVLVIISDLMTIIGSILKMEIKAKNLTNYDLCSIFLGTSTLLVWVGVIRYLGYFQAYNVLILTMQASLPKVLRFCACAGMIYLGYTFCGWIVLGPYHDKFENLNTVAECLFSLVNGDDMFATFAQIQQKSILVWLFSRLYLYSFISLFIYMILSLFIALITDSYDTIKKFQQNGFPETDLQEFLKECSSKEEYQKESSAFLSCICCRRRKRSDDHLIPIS
In short: (§1)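 HEK-293 Trex cells with doxycycline-induced (0.5 ug/mL) surface-directed human TRPML subtype, loaded with 1 μM Fluo4-AM, resuspended in Ringer's with 10 mM calcium. Compounds at 20 μM to 6 nM final in half-log steps, triplicate; fluorescence ex 480/em 540; EC50 by non-linear regression versus plate controls.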

[3] = target: T2, TRPML3 (Homo sapiens, UniProt Q8TDD5); assay: Fluorescent TRPML3 assay (performed as for TRPML1, substituting the TRPML3 subtype)
T2 construct: expressed in transfected cells
T2 sequence (Q8TDD5 1-553): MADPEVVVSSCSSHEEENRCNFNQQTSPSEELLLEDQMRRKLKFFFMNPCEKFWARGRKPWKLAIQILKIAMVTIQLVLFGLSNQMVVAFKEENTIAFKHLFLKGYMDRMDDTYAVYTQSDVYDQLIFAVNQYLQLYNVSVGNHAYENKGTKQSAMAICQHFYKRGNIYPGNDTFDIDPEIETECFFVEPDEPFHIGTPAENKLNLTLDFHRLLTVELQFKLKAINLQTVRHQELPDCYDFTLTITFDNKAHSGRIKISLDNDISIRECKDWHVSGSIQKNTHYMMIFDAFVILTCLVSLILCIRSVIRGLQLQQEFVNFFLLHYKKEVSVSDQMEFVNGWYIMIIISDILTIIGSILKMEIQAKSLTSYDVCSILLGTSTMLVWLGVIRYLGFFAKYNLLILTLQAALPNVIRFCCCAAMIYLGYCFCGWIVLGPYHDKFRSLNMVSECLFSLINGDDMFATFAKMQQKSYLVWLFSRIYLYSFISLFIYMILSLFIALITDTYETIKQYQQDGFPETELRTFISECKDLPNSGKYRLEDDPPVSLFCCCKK
In short: as §1

Chain of TRPML1 (Q9GZU1 whole entry L15A/L16A/L577A/L578A, form open): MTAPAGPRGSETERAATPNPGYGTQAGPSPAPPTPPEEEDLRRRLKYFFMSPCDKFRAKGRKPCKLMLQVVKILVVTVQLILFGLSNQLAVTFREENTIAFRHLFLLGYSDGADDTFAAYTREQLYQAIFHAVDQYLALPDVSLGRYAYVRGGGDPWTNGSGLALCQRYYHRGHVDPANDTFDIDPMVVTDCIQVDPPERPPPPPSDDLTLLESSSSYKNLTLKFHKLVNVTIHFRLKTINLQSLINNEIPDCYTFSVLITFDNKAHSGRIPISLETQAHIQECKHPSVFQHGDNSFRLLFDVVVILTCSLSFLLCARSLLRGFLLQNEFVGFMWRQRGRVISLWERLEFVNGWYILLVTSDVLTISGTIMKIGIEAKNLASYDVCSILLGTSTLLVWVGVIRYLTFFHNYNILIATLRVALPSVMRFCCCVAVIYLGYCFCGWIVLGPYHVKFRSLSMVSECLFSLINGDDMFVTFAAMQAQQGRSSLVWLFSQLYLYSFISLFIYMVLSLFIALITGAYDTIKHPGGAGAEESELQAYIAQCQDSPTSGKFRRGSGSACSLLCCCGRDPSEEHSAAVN

Row | SMILES | EC50 [1] | EC50 [2] | EC50 [3] | EC50 ([1]; fluorescent calcium assay) | EC50 ([2]; fluorescent calcium assay) | EC50 ([3]; fluorescent calcium assay)
1 | CCc1ccnc(-n2cc(C(F)(F)F)c3c(N4C[C@@H](C)N(C(=O)OC(C)(C)C)C[C@@H]4C)ncnc32)c1 [Compound 718, tert-butyl (2R,5S)-4-(7-(4-ethylpyridin-2-yl)-5-(trifluoromethyl)-7H-pyrrolo[2,3-d]pyrimidin-4-yl)-2,5-dimethylpiperazine-1-carboxylate] | 100 to 500 nM | 500 to 2000 nM | 100 to 500 nM | – | – | –
2 | C[C@H]1CN(C(=O)OC(C)(C)C)CCN1c1ncnc2c1c(C1CCCC1)cn2-c1cccc(Cl)c1 [Compound 158, tert-Butyl (S)-4-(7-(3-chlorophenyl)-5-cyclopentyl-7H-pyrrolo[2,3-d]pyrimidin-4-yl)-3-methylpiperazine-1-carboxylate] | – | – | – | < 100 nM | < 100 nM | < 100 nM
3 | Cc1nccnc1-c1cn(-c2cc(C#N)ccn2)c2ncnc(N3CCN(C(=O)OC(C)(C)C)C[C@@H]3C)c12 [Compound 319, tert-butyl (S)-4-(7-(4-cyanopyridin-2-yl)-5-(3-methylpyrazin-2-yl)-7H-pyrrolo[2,3-d]pyrimidin-4-yl)-3-methylpiperazine-1-carboxylate] | – | – | – | 500 to 2000 nM | 500 to 2000 nM | 100 to 500 nM
4 | Cc1cc(C#N)cc(-n2cc(C3CC3)c3c(N4CCN(C(=O)OC(C)(C)C)C[C@@H]4C)ncnc32)n1 [Compound 403, tert-butyl (S)-4-(7-(4-cyano-6-methylpyridin-2-yl)-5-cyclopropyl-7H-pyrrolo[2,3-d]pyrimidin-4-yl)-3-methylpiperazine-1-carboxylate] | – | – | – | 100 to 500 nM | 500 to 2000 nM | < 100 nM
5 | C[C@@H]1CN(C(=O)OC(C)(C)C)CCN1c1ncnc2c1c(C1CC1)cn2-c1cc(F)cc(F)c1 [Compound 211, tert-butyl (R)-4-(5-cyclopropyl-7-(3,5-difluorophenyl)-7H-pyrrolo[2,3-d]pyrimidin-4-yl)-3-methylpiperazine-1-carboxylate] | – | – | – | 100 to 500 nM | 500 to 2000 nM | < 100 nM
6 | C[C@H]1CN(c2ncnc3c2c(N2CCCC2)cn3-c2cccc(Cl)c2)CCN1C(=O)OC(C)(C)C [Compound 194, tert-Butyl (S)-4-(7-(3-chlorophenyl)-5-(pyrrolidin-1-yl)-7H-pyrrolo[2,3-d]pyrimidin-4-yl)-2-methylpiperazine-1-carboxylate] | – | – | – | 100 to 500 nM | 100 to 500 nM | 100 to 500 nM
7 | C[C@@H]1CN(c2ncnc3c2c(N2CCCC2)cn3-c2cc(F)c(F)c(F)c2)CCN1C(=O)OC(C)(C)C [Compound 362, tert-butyl (R)-2-methyl-4-(5-(pyrrolidin-1-yl)-7-(3,4,5-trifluorophenyl)-7H-pyrrolo[2,3-d]pyrimidin-4-yl)piperazine-1-carboxylate] | – | – | – | < 100 nM | 100 to 500 nM | < 100 nM
8 | [2H]C([2H])([2H])C(OC(=O)N1C[C@H](C)N(c2ncnc3c2c(C(F)(F)F)cn3-c2cc(C#N)ccn2)C[C@H]1C)(C([2H])([2H])[2H])C([2H])([2H])[2H] [Compound 518, 2-(methyl-d3)propan-2-yl-1,1,1,3,3,3-d6 (2R,5S)-4-(7-(4-cyanopyridin-2-yl)-5-(trifluoromethyl)-7H-pyrrolo[2,3-d]pyrimidin-4-yl)-2,5-dimethylpiperazine-1-carboxylate] | < 100 nM | < 100 nM | < 100 nM | – | – | –
9 | Cc1ccnc(-n2cc(C3CC3)c3c(N4C[C@@H](C)N(C(=O)OC(C)(C)C)C[C@@H]4C)ncnc32)c1 [Compound 644, tert-butyl (2R,5S)-4-(5-cyclopropyl-7-(4-methylpyridin-2-yl)-7H-pyrrolo[2,3-d]pyrimidin-4-yl)-2,5-dimethylpiperazine-1-carboxylate] | 100 to 500 nM | 500 to 2000 nM | 100 to 500 nM | – | – | –
10 | C[C@H]1CN(C(=O)OC(C)(C)C)CCN1c1ncnc2c1c(CN1CCCC1)cn2-c1cccc(C#N)c1 [Compound 400, tert-butyl (S)-4-(7-(3-cyanophenyl)-5-(pyrrolidin-1-ylmethyl)-7H-pyrrolo[2,3-d]pyrimidin-4-yl)-3-methylpiperazine-1-carboxylate] | – | – | – | 500 to 2000 nM | > 2000 nM | 500 to 2000 nM
